From the supplement of paper PMC10307832

Legend:
Experiment in all cases: relative viability (nuclei count vs DMSO), 5 days (fraction); higher = more cells survive
[1] = compound: Cc1ccc(NC(=O)c2ccc(CN3CCN(C)CC3)cc2)cc1Nc1nc(-c2cccnc2)cs1 [Masitinib] + N=C(N)NC(=N)NCCc1ccccc1 [Phenformin] (partner 250 µM)
Procedure, shortened: (§1)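 For relative viability, nuclei counts in treated wells were divided by those in vehicle wells. Lung cancer cell lines had been pin-tool dosed in 1536-well plates the day after seeding and cultured for 5 days, then fixed and stained in one step (final 0.05% Triton X-100, 1% formaldehyde, 1 ug/ml Hoechst) and imaged at 4×. Doses were one drug alone or a fixed anchor-drug dose plus five library-drug doses (not always all listed) in √10 steps, and values are duplicate-plate medians.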

[2] = compound: CC1=CC(=CC=C1)NC2=NC(=CS2)C3=CC=NC=C3 + CC1(C)CCC(c2ccc(Cl)cc2)=C(CN2CCN(c3ccc(C(=O)NS(=O)(=O)c4ccc(N[C@H](CCN5CCOCC5)CSc5ccccc5)c(S(=O)(=O)C(F)(F)F)c4)cc3)CC2)C1 [Navitoclax] (partner 0.5 µM)
Procedure, shortened: as §1

[3] = compound: Cc1ccc(NC(=O)c2ccc(CN3CCN(C)CC3)cc2)cc1Nc1nc(-c2cccnc2)cs1 [Masitinib]
Procedure, shortened: (§2)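 Lung cancer cell lines in 1536-well plates were kept overnight at 37 °C, then pinned with five library-drug doses (not always all listed) spaced by √10 on vehicle-anchored plates. After 5 days without medium change, cells were fixed, permeabilised and Hoechst-stained in one step, imaged at 4×, and nuclei were counted with MetaXpress. Viability is treated-well nuclei divided by vehicle-well nuclei, taken as the median over plates. Plates passed only with control CV below 25% and at least one doubling.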

[4] = compound: CC1=CC(=CC=C1)NC2=NC(=CS2)C3=CC=NC=C3
Procedure, shortened: as §2

Row | Cell Line | relative viability ([1]; first compound 0.01 µM) | relative viability ([1]; first compound 0.03162 µM) | relative viability ([1]; first compound 0.1 µM) | relative viability ([1]; first compound 0.3162 µM) | relative viability ([1]; first compound 1 µM) | relative viability ([2]; first compound 0.08 µM) | relative viability ([2]; first compound 0.253 µM) | relative viability ([2]; first compound 0.8 µM) | relative viability ([2]; first compound 2.53 µM) | relative viability ([2]; first compound 8 µM) | relative viability ([3]; 0.01 µM) | relative viability ([3]; 0.03162 µM) | relative viability ([3]; 0.1 µM) | relative viability ([3]; 0.3162 µM) | relative viability ([3]; 1 µM) | relative viability ([4]; 0.08 µM) | relative viability ([4]; 0.253 µM) | relative viability ([4]; 0.8 µM) | relative viability ([4]; 2.53 µM) | relative viability ([4]; 8 µM)
1 | LC-2-ad | 0.517 | 0.573 | 0.622 | 0.627 | 0.557 | 0.395 | 0.379 | 0.383 | 0.464 | 0.278 | 0.806 | 1.01 | 0.951 | 0.966 | 0.944 | 0.877 | 0.916 | 0.967 | 0.839 | 0.785
2 | CAL-12T | 0.525 | 0.637 | 0.594 | 0.553 | 0.509 | 1.19 | 1.06 | 1.16 | 1.05 | 1.24 | 0.922 | 0.953 | 0.99 | 0.97 | 0.967 | 0.867 | 0.928 | 1.06 | 0.854 | 0.911
3 | SK-LU-1 | 0.488 | 0.466 | 0.55 | 0.687 | 0.497 | 0.837 | 1.22 | 0.636 | 1.06 | 1.35 | 1.05 | 1.05 | 1.13 | 1.24 | 1.02 | 0.996 | 1.03 | 0.702 | 1.1 | 0.968
4 | NCI-H1651 | 0.341 | 0.29 | 0.337 | 0.375 | 0.31 | 0.894 | 1.2 | 0.948 | 1.05 | 0.899 | 0.899 | 0.97 | 0.954 | 0.988 | 0.971 | 0.95 | 0.918 | 1.03 | 0.87 | 0.963
5 | ABC-1 | 0.204 | 0.24 | 0.228 | 0.209 | 0.234 | – | – | – | – | – | 0.857 | 0.902 | 1.08 | 0.853 | 0.93 | 0.795 | 0.786 | 1.08 | 0.786 | 0.41
6 | NCI-H358 | 0.316 | 0.346 | 0.359 | 0.363 | 0.327 | – | – | – | – | – | 0.963 | 0.967 | 0.961 | 0.892 | 0.893 | 0.997 | 0.899 | 0.868 | 1.01 | 0.966
7 | EBC-1 | – | – | – | – | – | 0.376 | 0.381 | 0.516 | 0.391 | 0.227 | 0.988 | 0.946 | 1.2 | 0.984 | 0.834 | 0.788 | 0.882 | 0.865 | 0.823 | 0.685
8 | NCI-H1563 | 0.631 | 0.701 | 0.689 | 0.684 | 0.643 | – | – | – | – | – | 0.9 | 0.975 | 0.983 | 0.931 | 0.937 | 0.917 | 1.04 | 0.954 | 0.983 | 0.838
9 | NCI-H2342 | 0.71 | 0.567 | 0.615 | 0.614 | 0.573 | – | – | – | – | – | 1.03 | 0.866 | 1.07 | 0.889 | 0.843 | 0.96 | 0.929 | 0.95 | 0.93 | 0.881
10 | NCI-H661 | 0.267 | 0.286 | 0.254 | 0.26 | 0.267 | – | – | – | – | – | 0.9 | 0.977 | 0.986 | 0.967 | 0.947 | 0.907 | 0.944 | 0.913 | 0.914 | 0.99
11 | NCI-H650 | 0.508 | 0.428 | 0.514 | 0.303 | 0.425 | – | – | – | – | – | 0.998 | 0.963 | 1.09 | 1.04 | 0.899 | 0.805 | 0.881 | 1.01 | 0.752 | 1.15
12 | NCI-H1299 | – | – | – | – | – | 0.981 | 0.99 | 0.986 | 1.07 | 1.01 | 1.06 | 1.01 | 1.05 | 1.04 | 0.984 | 0.981 | 0.997 | 0.968 | 1.02 | 0.937
13 | SW 900 | 0.652 | 0.609 | 0.706 | 0.448 | 0.436 | – | – | – | – | – | 0.854 | 0.881 | 0.778 | 0.629 | 0.7 | 0.708 | 0.774 | 0.808 | 0.487 | 0.514
14 | IA-LM | – | – | – | – | – | 0.74 | – | 0.769 | 0.439 | 0.401 | 0.885 | 0.901 | 1.01 | 0.977 | 0.982 | 0.856 | 0.772 | 0.9 | 0.76 | 0.677
15 | LCLC-103H | 0.339 | 0.348 | 0.306 | 0.344 | 0.293 | – | – | – | – | – | 0.741 | 1.01 | 0.757 | 0.816 | 0.899 | 0.896 | 0.886 | 0.913 | 0.968 | 0.712
16 | NCI-H1648 | – | – | – | – | – | – | – | – | – | – | 0.907 | 0.599 | 1.01 | 0.776 | 0.896 | 0.659 | 0.814 | 0.797 | 0.87 | 0.758
